Results published in patent US20250312303A1, “ANTICANCER AGENT” (AGC Inc., priority 2022, published 2025).

How the values were obtained:
HeLa cells [1] = assay: Tumor volume of subcutaneously transplanted HeLa cells in SCID/SCID mice; type: in vivo
Description: First, 0.1 mL samples of an HeLa cell solution with a concentration of 1.0×10^7 cells/mL were transplanted beneath the skin of SCID/SCID (immunodeficient) mice. Starting 7 days after the HeLa cell transplantation, PBS (control group), leucine (5 mg/kg mouse bodyweight) or trifluoroleucine (5 mg/kg mouse bodyweight) was administered intraperitoneally every day for two weeks. The growth of the tumor tissue was observed over time from the time of HeLa transplantation, and the tumor volume (mm^3) was calculated. The tumor volume (mm^3) was calculated from the major diameter (mm) of the tumor tissue and the minor diameter (mm) of the tumor tissue using the formula shown below.
With the exceptions of using monofluoroisoleucine or 5-fluoro-5-methyl-norleucine (CAS RN: 1361228-49-0) instead of the trifluoroleucine, and starting the administration of the PBS, 5-fluoro-5-methyl-norleucine or monofluoroisoleucine 11 days after rather than 7 days after the HeLa cell transplantation, the same procedure as (1) above was used to measure the volume (mm^3) of the tumor formed by the subcutaneously transplanted HeLa cells over time.
(§1) First, 0.1 mL samples of an HeLa cell solution with a concentration of 1.0×10^7 cells/mL were transplanted beneath the skin of SCID/SCID (immunodeficient) mice. Starting 7 days after the HeLa cell transplantation, PBS (control group), glutamine (Gln) (5 mg/kg mouse bodyweight), (2S,4S)Gln(1F) (5 mg/kg mouse bodyweight) or (2S,4R)Gln(1F) (5 mg/kg mouse bodyweight) was administered intraperitoneally every day for two weeks. The growth of the tumor tissue was observed over time from the time of HeLa cell transplantation, and the tumor volume (mm^3) was calculated. The tumor volume (mm^3) was determined in the same manner as that described in Example 2.
as §1, with “mouse bodyweight), or di-F-Gln(F)” for “mouse bodyweight), (2S,4S)Gln(1F) (5 mg/kg mouse bodyweight) or (2S,4R)Gln(1F)”, “bodyweight), or di-F-Gln(F) (5 mg/kg” for “bodyweight) or (2S,4R)Gln(1F) (5 mg/kg”, “of HeLa transplantation, and” for “of HeLa cell transplantation, and”

NHDF cells = assay: SRB assay, relative cell proliferation rate of NHDF cells (control non-cancer cells); type: cell-based
Text: (§2) HeLa cells and PANC-1 cells were used as the cancer cells. Both these cells were obtained from ATCC. Further, NHDF cells obtained from Lonza Group Ltd. were used as control non-cancer cells. The culture mediums used were Dulbecco's Modified Eagle Medium (D-MEM, manufactured by FUJIFILM Wako Pure Chemical Corporation) to which 10% FBS had been added (hereinafter also referred to as the “normal medium”), a medium prepared by removing leucine from D-MEM and adding 10% FBS (hereinafter also referred to as the “Leu-removed medium”), and a medium prepared by removing valine from D-MEM and adding 10% FBS (hereinafter also referred to as the “Val-removed medium”).
(§3) The culture cells were inoculated into a 96-well culture plate at a concentration of 3×10^3 cells/well, and following adhesion, were cultured for 24, 48 or 72 hours in the normal medium, the Leu-removed medium or Val-removed medium, or a medium prepared by adding the fluorine-containing amino acid to the Leu-removed medium or Val-removed medium in an amount sufficient to achieve a final concentration of 0.8 mM. Following culturing, the cell proliferation rate was measured by SRB assay. As a control, the cell proliferation rate was measured in a similar manner for cells having a culture time of 0 hours.
(§4) The SRB assays were conducted in the following manner. Following cell culturing, the medium was removed, and 10% (wt/vol) of trichloroacetic acid was added to fix the cells. Subsequently, the fixed cells were washed three times with tap water, and then stained by adding a solution containing 0.4% (wt/vol) of sulforhodamine B dissolved in 1% acetic acid. Following subsequent washing three times with a 1% acetic acid solution, a 10 mM Tris solution was added, and the light absorbance at 540 nm was measured. The 540 nm absorbance value for each sample was used to indicate the cell quantity, and for each sample, the relative cell proliferation rate (%) at a culture time of X hours was determined using the formula below.
(§5) SRB assays were conducted in the same manner as Example 1 with the exceptions of using a medium prepared by removing glutamine from D-MEM and adding 10% FBS (hereinafter also referred to as the “Gln-removed medium”) as the culture medium instead of the Leu-removed medium, using monofluoroglutamine ((2S,4S)Gln(1F) or (2S,4R)Gln(1F)) as the fluorine-containing amino acid, and altering the amount of monofluoroglutamine added to the Gln-removed medium to an amount sufficient to achieve a final concentration of 4 mM.

PANC-1 cells = assay: SRB assay, relative cell proliferation rate of PANC-1 cells; type: cell-based
Text: as §2, §3, §4, §5
(§6) SRB assays were conducted in the same manner as Example 1 with the exceptions of using the Gln-removed medium as the culture medium instead of the Leu-removed medium, using difluoroglutamine as the fluorine-containing amino acid, and altering the amount of difluoroglutamine added to the Gln-removed medium to an amount sufficient to achieve a final concentration of 4 mM.

HeLa cells [2] = assay: SRB assay, relative cell proliferation rate of HeLa cells; type: cell-based
Text: as §2, §3, §4, §5, §6

[3] = Gln-removed medium + 4 mM amino acid, culture time 24 h
[4] = Gln-removed medium + 4 mM amino acid, culture time 48 h
[5] = Gln-removed medium + 4 mM amino acid, culture time 72 h
[6] = Leu-removed medium + 0.8 mM amino acid, culture time 24 h
[7] = Leu-removed medium + 0.8 mM amino acid, culture time 48 h
[8] = Leu-removed medium + 0.8 mM amino acid, culture time 72 h, hydrochloride
[9] = Val-removed medium + 0.8 mM amino acid, culture time 24 h
[10] = Val-removed medium + 0.8 mM amino acid, culture time 48 h
[11] = Val-removed medium + 0.8 mM amino acid, culture time 72 h
[12] = Val-removed medium + 0.8 mM amino acid, culture time 72 h, listed as monofluorovaline
[13] = Leu-removed medium + 0.8 mM amino acid, culture time 72 h

In the case of `NC(=O)[C@H](F)C[C@H](N)C(=O)O` [(2S,4R)-Gln(1F)], the Tumor volume (HeLa cells [1]; 5 mg/kg intraperitoneally every day for two weeks starting day 7, 7 days since HeLa cell transplantation) was 74.6 mm^3, the Tumor volume (HeLa cells [1]; 5 mg/kg intraperitoneally every day for two weeks starting day 7, 9 days since HeLa cell transplantation) was 101.6 mm^3 and the Tumor volume (HeLa cells [1]; 5 mg/kg intraperitoneally every day for two weeks starting day 7, 11 days since HeLa cell transplantation) was 147.2 mm^3. For the same compound, the Tumor volume (HeLa cells [1]; 5 mg/kg intraperitoneally every day for two weeks starting day 7, 14 days since HeLa cell transplantation) was 219.1 mm^3, the Tumor volume (HeLa cells [1]; 5 mg/kg intraperitoneally every day for two weeks starting day 7, 16 days since HeLa cell transplantation) was 287.0 mm^3 and the Tumor volume (HeLa cells [1]; 5 mg/kg intraperitoneally every day for two weeks starting day 7, 18 days since HeLa cell transplantation) was 307.7 mm^3. For the same compound, the Tumor volume (HeLa cells [1]; 5 mg/kg intraperitoneally every day for two weeks starting day 7, 21 days since HeLa cell transplantation) was 431.4 mm^3, the “Increase in the size of the tumor tissue compared with the control group” value (HeLa cells [1]; HeLa tumor-bearing SCID/SCID mice, 5 mg/kg intraperitoneally every day for two weeks, result in words) was “dramatically inhibited” and the “Relative cell proliferation rate of NHDF cells” value (NHDF cells; [3]) was 132.5%. The “Relative cell proliferation rate of NHDF cells” value (NHDF cells; [4]) was 46.5%, the “Relative cell proliferation rate of NHDF cells” value (NHDF cells; [5]) was 26.3% and the “Relative cell proliferation rate of PANC-1 cells” value (PANC-1 cells; [3]) was 65.0%. For the same compound, the “Relative cell proliferation rate of PANC-1 cells” value (PANC-1 cells; [4]) was 34.7%, the “Relative cell proliferation rate of PANC-1 cells” value (PANC-1 cells; [5]) was 25.7% and the “Relative cell proliferation rate of HeLa cells” value (HeLa cells [2]; [3]) was 46.8%. The “Relative cell proliferation rate of HeLa cells” value (HeLa cells [2]; [4]) was 21.5% and the “Relative cell proliferation rate of HeLa cells” value (HeLa cells [2]; [5]) was 23.1%.
For `CC(C)(F)CC[C@H](N)C(=O)O` [5F-NorLeu, 5-fluoro-5-methyl-norleucine], the Tumor volume (HeLa cells [1]; administration intraperitoneally every day starting day 11, 11 days since HeLa cell transplantation) was 230.6 mm^3, the Tumor volume (HeLa cells [1]; administration intraperitoneally every day starting day 11, 13 days since HeLa cell transplantation) was 373.9 mm^3 and the Tumor volume (HeLa cells [1]; administration intraperitoneally every day starting day 11, 15 days since HeLa cell transplantation) was 684.9 mm^3. For the same compound, the Tumor volume (HeLa cells [1]; administration intraperitoneally every day starting day 11, 18 days since HeLa cell transplantation) was 823.5 mm^3, the Tumor volume (HeLa cells [1]; administration intraperitoneally every day starting day 11, 20 days since HeLa cell transplantation) was 1291.7 mm^3 and the Tumor volume (HeLa cells [1]; administration intraperitoneally every day starting day 11, 22 days since HeLa cell transplantation) was 1951.5 mm^3.
`Cl.NC(CC(C(F)(F)F)C(F)(F)F)C(=O)O` (stereo not drawn) [Leu(6F), 2-amino-5,5,5-trifluoro-4-(trifluoromethyl) pentanoic acid hydrochloride] was tested, and the “Relative cell proliferation rate of NHDF cells” value (NHDF cells; [6]) was 104.7%, the “Relative cell proliferation rate of NHDF cells” value (NHDF cells; [7]) was 130.1% and the “Relative cell proliferation rate of NHDF cells” value (NHDF cells; [8]) was 179.1%. For the same compound, the “Relative cell proliferation rate of PANC-1 cells” value (PANC-1 cells; [6]) was 75.5%, the “Relative cell proliferation rate of PANC-1 cells” value (PANC-1 cells; [7]) was 96.5% and the “Relative cell proliferation rate of PANC-1 cells” value (PANC-1 cells; [8]) was 193.6%. For the same compound, the “Relative cell proliferation rate of PANC-1 cells” value (PANC-1 cells; Leu-removed medium + 0.8 mM amino acid, culture time 72 h, listed as hexafluoroleucine, hydrochloride) was about 200%, the “Relative cell proliferation rate of HeLa cells” value (HeLa cells [2]; [6]) was 137.3% and the “Relative cell proliferation rate of HeLa cells” value (HeLa cells [2]; [7]) was 264.0%. For the same compound, the “Relative cell proliferation rate of HeLa cells” value (HeLa cells [2]; [8]) was 472.5%.
For `CC(C)(F)C(N)C(=O)O` (racemic) [Val(1F), 3-fluoro-DL-valine], the “Relative cell proliferation rate of NHDF cells” value (NHDF cells; [9]) was 91.5%, the “Relative cell proliferation rate of NHDF cells” value (NHDF cells; [10]) was 70.4% and the “Relative cell proliferation rate of NHDF cells” value (NHDF cells; [11]) was 110.5%. The “Relative cell proliferation rate of NHDF cells” value (NHDF cells; [12]) was “lower than the relative cell proliferation rate observed for the Val-removed medium”, the “Relative cell proliferation rate of PANC-1 cells” value (PANC-1 cells; [9]) was 88.8% and the “Relative cell proliferation rate of PANC-1 cells” value (PANC-1 cells; [10]) was 103.8%. The “Relative cell proliferation rate of PANC-1 cells” value (PANC-1 cells; [11]) was 105.1%, the “Relative cell proliferation rate of PANC-1 cells” value (PANC-1 cells; [12]) was “about 100%” and the “Relative cell proliferation rate of HeLa cells” value (HeLa cells [2]; [9]) was 72.83%. For the same compound, the “Relative cell proliferation rate of HeLa cells” value (HeLa cells [2]; [10]) was 118.0% and the “Relative cell proliferation rate of HeLa cells” value (HeLa cells [2]; [11]) was 273.6%.
With `CC(C)(F)C[C@H](N)C(=O)O` [Leu(1F), 4-fluoro-L-leucine] the “Relative cell proliferation rate of NHDF cells” value (NHDF cells; [6]) was 92.0%, the “Relative cell proliferation rate of NHDF cells” value (NHDF cells; [7]) was 66.4% and the “Relative cell proliferation rate of NHDF cells” value (NHDF cells; [13]) was 87.7%. The “Relative cell proliferation rate of NHDF cells” value (NHDF cells; Leu-removed medium + 0.8 mM amino acid, culture time 72 h, listed as monofluoroleucine) was “less than 100%”, the “Relative cell proliferation rate of PANC-1 cells” value (PANC-1 cells; [6]) was 67.6% and the “Relative cell proliferation rate of PANC-1 cells” value (PANC-1 cells; [7]) was 47.9%. The “Relative cell proliferation rate of PANC-1 cells” value (PANC-1 cells; [13]) was 40.9%, the “Relative cell proliferation rate of HeLa cells” value (HeLa cells [2]; [6]) was 82.3% and the “Relative cell proliferation rate of HeLa cells” value (HeLa cells [2]; [7]) was 90.6%. The “Relative cell proliferation rate of HeLa cells” value (HeLa cells [2]; [13]) was 82.0%.
